Results as given in patent publication EP4803147A2.
Like-named read-outs stand apart in the source and are kept apart here.

Q: With `CCn1c(-c2cccnc2[C@H](C)OC)c2c3cc(ccc31)-c1csc(n1)[C@@H](OCC(F)F)[C@H](NC(=O)OC(C)(C)C)C(=O)N1CCC[C@H](N1)C(=O)OCC(C)(C)C2` as the molecule, how does the ring closure, yield of all isomers (from CCn1c(-c2cccnc2[C@H](C)OC)c(CC(C)(C)COC(=O)[C@@H]2CCCN(C(=O)[C@@H](NC(=O)OC(C)(C)C)[C@H](OCC(F)F)c3nc(Br)cs3)N2)c2cc(B3OC(C)(C)C(C)(C)O3)ccc21, cc_pd bond, Pd(DtBPF)Cl2, K3PO4, toluene, 10.0 mM, 60.0 °C, 1.0 h) read?
A: 59%

Q: For `CCn1c(-c2cccnc2[C@H](C)OC)c2c3cc(ccc31)-c1csc(n1)[C@@H](OCC1=CCN(C(=O)OCc3ccccc3)CC1)[C@H](NC(=O)OC(C)(C)C)C(=O)N1CCC[C@H](N1)C(=O)OCC(C)(C)C2`, which ring closure, yield of all isomers (from CCn1c(-c2cccnc2[C@H](C)OC)c(CC(C)(C)COC(=O)[C@@H]2CCCN(C(=O)[C@@H](NC(=O)OC(C)(C)C)[C@H](OCC3=CCN(C(=O)OCc4ccccc4)CC3)c3nc(Br)cs3)N2)c2cc(B3OC(C)(C)C(C)(C)O3)ccc21, cc_pd bond, Pd(dtbpf)Cl2, K3PO4, toluene, 60.0 °C, 2.0 h) is on record?
A: 32%

Q: For `CCn1c(-c2cccnc2[C@H](C)OC)c2c3cc(ccc31)C1=CC(O[Si](c3ccccc3)(c3ccccc3)C(C)(C)C)CN(C1)C[C@H](NC(=O)OC(C)(C)C)C(=O)N1CCC[C@H](N1)C(=O)OCC(C)(C)C2` (some centres unmarked), which ring closure, yield of all isomers (from CCn1c(-c2cccnc2[C@H](C)OC)c(CC(C)(C)COC(=O)[C@@H]2CCCN(C(=O)[C@H](CN3CC(Br)=CC(O[Si](c4ccccc4)(c4ccccc4)C(C)(C)C)C3)NC(=O)OC(C)(C)C)N2)c2cc(B3OC(C)(C)C(C)(C)O3)ccc21, cc_pd bond, Pd(dppf)Cl2, K2CO3, toluene, 20.0 mM, 65.0 °C, 2.0 h) is on record?
A: 42%

Q: With `CCO[C@@H]1c2nc(cs2)-c2ccc3c(c2)c(c(-c2cc(N4CCN(C(=O)OCc5ccccc5)CC4)cnc2[C@H](C)OC)n3CCOC(C)C)CC2(CC2)COC(=O)[C@@H]2CCCN(N2)C(=O)[C@H]1NC(=O)OC(C)(C)C` as the molecule, how does the ring closure, yield of all isomers (from CCO[C@H](c1nc(Br)cs1)[C@H](NC(=O)OC(C)(C)C)C(=O)N1CCC[C@@H](C(=O)OCC2(Cc3c(-c4cc(N5CCN(C(=O)OCc6ccccc6)CC5)cnc4[C@H](C)OC)n(CCOC(C)C)c4ccc(B5OC(C)(C)C(C)(C)O5)cc34)CC2)N1, cc_pd bond, XPhos-Pd-G3/XPhos, K3PO4, toluene, 28.0 mM, 65.0 °C, 2.0 h) read?
A: 27%

Q: Which ring closure, yield of all isomers (from CCO[C@H](c1nc(Br)cs1)[C@H](NC(=O)OC(C)(C)C)C(=O)N1CCC[C@@H](C(=O)OCC(C)(C)Cc2c(-c3cccnc3[C@H](C)OC)n(CC)c3ccc(B4OC(C)(C)C(C)(C)O4)cc23)N1, cc_pd bond, Pd(DTBpf)Cl2/K3PO4, toluene, 26.7 mM, 60.0 °C, 1.0 h) does the source give for `CCO[C@@H]1c2nc(cs2)-c2ccc3c(c2)c(c(-c2cccnc2[C@H](C)OC)n3CC)CC(C)(C)COC(=O)[C@@H]2CCCN(N2)C(=O)[C@H]1NC(=O)OC(C)(C)C` here?
A: 31%

Q: For `CO[C@@H](C)c1ncccc1-c1c2c3cc(ccc3n1CCOC1CCOCC1)-c1csc(n1)C[C@H](NC(=O)OC(C)(C)C)C(=O)N1CCC[C@H](N1)C(=O)OCC(C)(C)C2`, which ring closure, yield of all isomers (from CO[C@@H](C)c1ncccc1-c1c(CC(C)(C)CO)c2cc(-c3csc(C[C@H](NC(=O)OC(C)(C)C)C(=O)N4CCC[C@@H](C(=O)O)N4)n3)ccc2n1CCOC1CCOCC1, ester bond, EDCI/HOBt, DIPEA, DCM, 7.0 mM, 25.0 °C, 16.0 h) is on record?
A: 68%

Q: Which ring closure, yield of all isomers (from CCn1c(-c2cccnc2[C@H](C)OC)c(CC(C)(C)COC(=O)[C@@H]2CCCN(C(=O)[C@@H](NC(=O)OCC3c4ccccc4-c4ccccc43)C(c3nc(Br)cs3)N(C)C)N2)c2cc(B3OC(C)(C)C(C)(C)O3)ccc21, cc_pd bond, Pd(dtbpf)Cl2, toluene, 27.3 mM, 60.0 °C, 1.0 h) does the source give for `CCn1c(-c2cccnc2[C@H](C)OC)c2c3cc(ccc31)-c1csc(n1)C(N(C)C)[C@H](NC(=O)OCC1c3ccccc3-c3ccccc31)C(=O)N1CCC[C@H](N1)C(=O)OCC(C)(C)C2` (some centres unmarked) here?
A: 19%

Q: For `CCO[C@@H]1c2nc(cs2)-c2ccc3c(c2)c(c(-c2cc([C@@H]4C[C@H]5COC[C@@H](C4)N5C(=O)OCC4c5ccccc5-c5ccccc54)cnc2[C@H](C)OC)n3CC)CC(C)(C)COC(=O)[C@@H]2CCCN(N2)C(=O)[C@H]1NC(=O)OC(C)(C)C`, which ring closure, yield of all isomers (from CCO[C@H](c1nc(Br)cs1)[C@H](NC(=O)OC(C)(C)C)C(=O)N1CCC[C@@H](C(=O)OCC(C)(C)Cc2c(-c3cc([C@@H]4C[C@H]5COC[C@@H](C4)N5C(=O)OCC4c5ccccc5-c5ccccc54)cnc3[C@H](C)OC)n(CC)c3ccc(B4OC(C)(C)C(C)(C)O4)cc23)N1, cc_pd bond, Pd(DtBPF)Cl2, toluene, 10.4 mM, 80.0 °C, 3.0 h) is on record?
A: 65%

Q: Which ring closure, yield of all isomers (from CCn1c(-c2cccnc2[C@H](C)OC)c(CC(C)(C)CO)c2cc(-c3csc(C[C@H](NC(=O)OC(C)(C)C)C(=O)N4CCC[C@@H](C(=O)O)N4)n3)ccc21, ester bond, EDCI/HOBt/DIPEA, DCM, 12.65 mM, 25.0 °C, 16.0 h) does the source give for `CCn1c(-c2cccnc2[C@H](C)OC)c2c3cc(ccc31)-c1csc(n1)C[C@H](NC(=O)OC(C)(C)C)C(=O)N1CCC[C@H](N1)C(=O)OCC(C)(C)C2` here?
A: 81%

Q: With `CCO[C@@H]1c2nc(cs2)-c2ccc3c(c2)c(c(-c2cc(C4=CCN(C(=O)OCc5ccccc5)CC4)cnc2[C@H](C)OC)n3CC)CC(C)(C)COC(=O)[C@@H]2CCCN(N2)C(=O)[C@H]1NC(=O)OC(C)(C)C` as the molecule, how does the ring closure, yield of all isomers (from CCO[C@H](c1nc(Br)cs1)[C@H](NC(=O)OC(C)(C)C)C(=O)N1CCC[C@@H](C(=O)OCC(C)(C)Cc2c(-c3cc(C4=CCN(C(=O)OCc5ccccc5)CC4)cnc3[C@H](C)OC)n(CC)c3ccc(B4OC(C)(C)C(C)(C)O4)cc23)N1, cc_pd bond, Pd(DtBPF)Cl2, K3PO4, toluene, 40.7 mM, 70.0 °C, 1.0 h) read?
A: 39%

Q: Which ring closure, yield of all isomers (from CCn1c(-c2cccnc2[C@H](C)OC)c(CC(C)(C)COC(=O)[C@@H]2CCCN(C(=O)[C@H](CN3CC(Br)=CC[C@@H]3COC)NC(=O)OC(C)(C)C)N2)c2cc(B3OC(C)(C)C(C)(C)O3)ccc21, cc_pd bond, Pd(dppf)Cl2, K3PO4, toluene, 116.0 mM, 70.0 °C, 3.0 h) does the source give for `CCn1c(-c2cccnc2[C@H](C)OC)c2c3cc(ccc31)C1=CC[C@H](COC)N(C1)C[C@H](NC(=O)OC(C)(C)C)C(=O)N1CCC[C@H](N1)C(=O)OCC(C)(C)C2` here?
A: 30%

Q: For `CCO[C@@H]1c2nc(cs2)-c2ccc3c(c2)c(c(-c2cc(N4CCN(C(=O)OCc5ccccc5)CC4)cnc2[C@H](C)OC)n3CCOC(C)C)CC(C)(C)COC(=O)[C@@H]2CCCN(N2)C(=O)[C@H]1NC(=O)OC(C)(C)C`, which ring closure, yield of all isomers (from CCO[C@H](c1nc(Br)cs1)[C@H](NC(=O)OC(C)(C)C)C(=O)N1CCC[C@@H](C(=O)OCC(C)(C)Cc2c(-c3cc(N4CCN(C(=O)OCc5ccccc5)CC4)cnc3[C@H](C)OC)n(CCOC(C)C)c3ccc(B4OC(C)(C)C(C)(C)O4)cc23)N1, cc_pd bond, Pd(dtbpf)Cl2, K3PO4, toluene, 16.0 mM, 65.0 °C, 2.0 h) is on record?
A: 44%

Q: With `CCn1c(-c2cccnc2[C@H](C)OC)c2c3cc(ccc31)-c1csc(n1)[C@@H](OCCN(C)C)[C@H](NC(=O)OC(C)(C)C)C(=O)N1CCC[C@H](N1)C(=O)OCC(C)(C)C2` as the molecule, how does the ring closure, yield of all isomers (from CCn1c(-c2cccnc2[C@H](C)OC)c(CC(C)(C)COC(=O)[C@@H]2CCCN(C(=O)[C@@H](NC(=O)OC(C)(C)C)[C@H](OCCN(C)C)c3nc(Br)cs3)N2)c2cc(B3OC(C)(C)C(C)(C)O3)ccc21, cc_pd bond, Pd(dtbpf)Cl2, K3PO4, toluene, 57.0 mM, 60.0 °C, 4.0 h) read?
A: 50%

Q: For `CC1(C)COC(=O)[C@@H]2CCCN(N2)C(=O)[C@@H](NC(=O)OC(C)(C)C)Cc2nc(cs2)-c2ccc3c(c2)c(c(-c2ccnc(N4CCN(C(=O)OCc5ccccc5)CC4)c2)n3C(C)(C)C#N)C1`, which ring closure, yield of all isomers (from CC(C)(CO)Cc1c(-c2ccnc(N3CCN(C(=O)OCc4ccccc4)CC3)c2)n(C(C)(C)C#N)c2ccc(-c3csc(C[C@H](NC(=O)OC(C)(C)C)C(=O)N4CCC[C@@H](C(=O)O)N4)n3)cc12, ester bond, EDCI/HOBT/DIPEA, DCM, 1.05 mM, 25.0 °C, 16.0 h) is on record?
A: 52%

Q: Which ring closure, yield of all isomers (from CCn1c(-c2cc(N3CCN(C(=O)OCc4ccccc4)CC3)cnc2[C@H](C)OC)c(CC(C)(C)CO)c2cc(-c3csc(C[C@H](NC(=O)OC(C)(C)C)C(=O)N4CCC[C@@H](C(=O)O)N4)n3)ccc21, ester bond, EDCI/HOBt/DIPEA, MeCN, 10.34 mM, 25.0 °C, 16.0 h) does the source give for `CCn1c(-c2cc(N3CCN(C(=O)OCc4ccccc4)CC3)cnc2[C@H](C)OC)c2c3cc(ccc31)-c1csc(n1)C[C@H](NC(=O)OC(C)(C)C)C(=O)N1CCC[C@H](N1)C(=O)OCC(C)(C)C2` here?
A: 54.8%

Q: For `CCO[C@@H]1c2nc(cs2)-c2ccc3c(c2)c(c(-c2cc(C4=CC5COCC(C4)N5C(=O)OCC4c5ccccc5-c5ccccc54)cnc2[C@H](C)OC)n3CC)CC(C)(C)COC(=O)[C@@H]2CCCN(N2)C(=O)[C@H]1NC(=O)OC(C)(C)C`, which ring closure, yield of all isomers (from CCO[C@H](c1nc(Br)cs1)[C@H](NC(=O)OC(C)(C)C)C(=O)N1CCC[C@@H](C(=O)OCC(C)(C)Cc2c(-c3cc(C4=CC5COCC(C4)N5C(=O)OCC4c5ccccc5-c5ccccc54)cnc3[C@H](C)OC)n(CC)c3ccc(B4OC(C)(C)C(C)(C)O4)cc23)N1, cc_pd bond, Pd(dppf)Cl2.DCM, toluene, 205.0 mM, 80.0 °C, 3.0 h) is on record?
A: 49%

Q: Which ring closure, yield of all isomers (from CC(C)(CO)Cc1c(I)[nH]c2ccc(-c3csc(C[C@H](NC(=O)OC(C)(C)C)C(=O)N4CCC[C@@H](C(=O)O)N4)n3)cc12, ester bond, EDCI/HOBt/DIPEA, DCM, 17.57 mM, 25.0 °C, 16.0 h) does the source give for `CC1(C)COC(=O)[C@@H]2CCCN(N2)C(=O)[C@@H](NC(=O)OC(C)(C)C)Cc2nc(cs2)-c2ccc3[nH]c(I)c(c3c2)C1` here?
A: 45.9%
